Experimental findings from patent publication US7358267B2, “Bis-aryl thiazole derivatives” (Amgen Inc., priority 2001, dated 2008) are described below.

The subject of series [1] is UCP3. Nature of the series: UCP3 RNA induction in rat L6 cells (QPCR). In kind it is cell-based. Here is the method:
Table 1 provides QPCR data (ABI 7700 Sequence Detection System) for exemplary compounds of formula I evaluated for UCP3 RNA induction in L6 cells from rats. The assay is described in Example 14.4, below.
Rat UCP3 (L6 cells) QPCR Protocol
1. (Day1) Plate 300,000 L6 cells per well (24 well plate) in Minimum Essential Medium-Alpha Medium with 2% FBS and Antibiotic/Antimycotic Solution added. Incubate for 2 days and change to fresh medium (Day3). Incubate 1 more day.
2. (Day 4) Add compound at desired concentration. Incubate for 18-20 h. 2 wells per compound. 4-wells of DMSO controls per plate.
3. (Day 5) Prepare RNA from cells: • (1) Aspirate media and lyse cells directly on plate by adding 500 μL of Trizol Reagent (Gibco BRL) to each well and passing the lysate several times through a pipette. Transfer lysate to eppendorf tubes (combining the lysate from identical compound treatments). • (2) Add 200 μL of chloroform to the 1 mL of lysate. Vortex to mix and incubate at room temp. for 2-3 min. Spin samples in a microfuge at 12,000 rpm for 15 min. at 4° C. • (3) Transfer the aqueous phase to a fresh tube. Precipitate the RNA from the aqueous phase by adding 500 μL of isopropanol and mixing well. Incubate at −20° C. for at least 15 min. Pellet the RNA by spinning at 12,000 rpm for 10 min. at 4° C. • (4) Remove the supernatant and wash the RNA pellet with 500 μL of 75% ethanol. Spin at 10,000 rpm for 5 min. at 4° C. • (5) Remove the supernatant and allow pellet to air dry briefly. Dissolve RNA in 15 μL of RNase-free water. Store at −80° C. Electrophorese some RNA to check quality.
4. QPCR (50 μL reactions in 96 well MicroAmp Optical Plate): TaqMan Gold RT-PCR Reagents (PE catalog #N808-0232): OD RNA and dilute to 5 ng/μL in RNase-free water. All samples run in duplicate with UCP3 and m18S probe/primers
Add 40 μL of Reaction Mix to 10 μL of diluted RNA (50 ng total) on QPCR plate PCR Cycling Parameters • 48° C. 30 min. • 95° C. 10 min. • 40 cycles: 95° C. 15 sec. • 58° C. 1.5 min. QPCR Primers/Probes

Series [2] addresses T1, RXRα (Homo sapiens, UniProt P19793).
T1 construct: expressed in transfected cells; host or cells: HEK 293 cells
T1 sequence (P19793 1-462): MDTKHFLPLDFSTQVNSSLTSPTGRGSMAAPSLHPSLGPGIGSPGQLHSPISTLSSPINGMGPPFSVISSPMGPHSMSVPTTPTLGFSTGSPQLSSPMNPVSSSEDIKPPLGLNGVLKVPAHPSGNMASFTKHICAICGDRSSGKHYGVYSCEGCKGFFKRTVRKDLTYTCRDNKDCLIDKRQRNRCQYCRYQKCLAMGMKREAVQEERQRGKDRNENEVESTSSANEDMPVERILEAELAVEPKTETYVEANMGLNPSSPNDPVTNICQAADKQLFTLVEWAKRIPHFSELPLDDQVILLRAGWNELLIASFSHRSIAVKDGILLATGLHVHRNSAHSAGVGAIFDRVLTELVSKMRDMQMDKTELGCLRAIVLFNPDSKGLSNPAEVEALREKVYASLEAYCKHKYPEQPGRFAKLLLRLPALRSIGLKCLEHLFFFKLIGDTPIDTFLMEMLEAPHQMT
Briefly: RXRα induction in HEK 293 cells (transient transfection, luciferase reporter). In kind it is cell-based. The procedure: Table 2 provides QPCR data (ABI 7700 Sequence Detection System) for exemplary compounds of formula I evaluated for RXR induction in HEK 293 cells, following a general protocol, briefly described below. See Naeger et al. (1999) J. Biol. Chem. 274:1875-1878 for a related cell-based assay.
DNA constructs containing a luciferase reporter plasmid and another plasmid which contained an activation domain (e.g., RXRα) were transiently transfected into HEK 293 cells. The cells were treated with the compounds and luciferase activity was measured using a luminometer. Fold induction was determined by comparing the luciferase activity of treated cells to the activity of untreated cells.
On the technique in general: A reporter such as luciferase makes a cellular process visible.

Series [3] concerns UCP3 protein. Nature of the series: UCP3 protein induction in vivo in skeletal muscle after oral dosing (Western blot). The settings on record: skeletal muscle tissue from Sprague-Dawley rats. Here is the method:
UCP3 protein was induced 2- to 3-fold in vivo (skeletal muscle tissue from Sprague-Dawley rats) after oral dosing with compound 1 (Western blot).
1. Isolate rat or mouse skeletal muscle and snap freeze in liquid nitrogen. Grind into a fine powder using mortar and pestle and transfer to an eppendorf tube.
2. Resuspend skeletal muscle in Buffer 1 (0.15 mM MgCl2, 10 mM KCl, 10 mM Tris-HCl, pH 6.7, stored at 4° C.).
3. Place resuspended cells on ice for 2 min. Homogenize using either Potter-Eleuhjem Teflon homogenizer and glass dounce or using hand held homogenizer for 2 min.
4. Add sucrose (1 M) to a final concentration of 0.25 M and spin at 1500 g (4000 rpm in microfuge) for 3 min. to remove nuclei.
5. Take the supernatant fraction and pellet the mitochondria by centrifugation at 10000 rpm for 10 min.
6. Resuspend pellet in 500 μl Buffer 2 (0.15 mM MgCl2, […], 10 mM Tris-HCl, pH 6.7, stored at 2-4° C.).
9. Resuspend final mitochondrial pellet in 2 7 μl Buffer 3 (0.25 M Sucrose, 10 mM Tris-acetate, pH 7.0, 3 μl 10× protease inhibitor cocktail (BMB), stored at 4° C.).
10. Determine protein concentration with BioRad protein assay dye (Bradford Reagent). 1 μl protein in 100 μl 1× Bradford Reagent. OD595 with BSA standard curve (1 μg/μl-50 μg/μl).
For antiUCP3 Westerns use 60 μg protein. Run precast 10% gels until dye front is about 1 cm from bottom of gel. […]
(In general: In western blotting, separated proteins are transferred to a membrane and probed.)

Regarding `Cc1c(C(=O)O)cnn1-c1nc(-c2cccc(C(F)(F)F)c2)cs1` [Compound 1, 1-[4-(3-(Trifluoromethyl)phenyl)thiazol-2-yl]-5-methylpyrazole-4-carboxylic acid], the melting point (commonly the temperature, or range, at which the solid turns liquid) was 226.7 to 227.5 °C. The fold induction – broadly, the signal under treatment as a multiple of the control signal – at 10 µM in series [1] is greater than 10. In series [2], the “RXRα RNA induction at 1 μM” value is reported as “++ (++ denotes greater than 5-fold induction)”, the “RXRα RNA induction at 3 μM” value is recorded as “+ (+ denotes 5-fold or less induction)” and the “RXRα RNA induction at 10 μM” value is on record as “+ (+ denotes 5-fold or less induction)”. Also, the UCP3 protein induction in series [3] is on record as 2- to 3 fold.

Molecule `O=C(O)c1cnn(-c2nc(-c3cc(C(F)(F)F)cc(C(F)(F)F)c3)cs2)c1C(F)(F)F` [Compound 13, 1-[4-(3,5-Bis(trifluoromethyl)phenyl)thiazol-2-yl]-5-(trifluoromethyl)pyrazole-4-carboxylic acid] came in with a melting point of 204 to 204.7 °C. The fold induction at 10 µM in series [1] was no more than 10. Moreover, in series [2], the “RXRα RNA induction at 1 μM” value is “+ (+ denotes 5-fold or less induction)”, the “RXRα RNA induction at 3 μM” value was “+ (+ denotes 5-fold or less induction)” and the “RXRα RNA induction at 10 μM” value was “+ (+ denotes 5-fold or less induction)”.
